PubChem BioAssay AID2771 (The Scripps Research Institute Molecular Screening Center, 2010)
Calls of active or inactive are those of the source. How the calls were made is not given here.

Target: Signal transducer and activator of transcription 3 (Homo sapiens) (UniProt P40763)
Test: reduction of STAT3-responsive reporter signal – cell-based, luminescence, dose response, counter-screen for STAT1 inhibitor project, late-stage follow-up (AID 2771)
Details: STAT3-responsive luciferase reporter cells

SMILES | IC50
O=C(c1ccc(-n2c(=S)[nH]c3ccccc3c2=O)cc1)N1CCN(c2ccccc2)CC1 | > 55.7 µM (inactive)
CN1CCN(Cc2nc3ccccc3c(=O)n2Cc2nc(-c3cccc([N+](=O)[O-])c3)cs2)CC1 | > 55.7 µM (inactive)
O=C1c2ccccc2N/C(=C\N2CCOCC2)N1Cc1nc(-c2ccccc2F)cs1 | > 55.7 µM (inactive)
O=C1c2ccccc2N/C(=C\N2CCOCC2)N1Cc1nc(-c2ccc(F)c(F)c2)cs1 | > 18.6 µM (inactive)
Cc1ccc2oc(=O)cc(CSc3nc(-c4ccccc4)c4ccccc4n3)c2c1 | > 55.7 µM (inactive)
CCC(C)c1ccc(-c2csc(CN3C(=O)c4ccccc4N/C3=C\N3CCN(C)CC3)n2)cc1 (centres undefined) | > 55.7 µM (inactive)
N#Cc1ccccc1S(=O)(=O)N1CCN(C(C(=O)Nc2ccc(F)cc2)c2ccccc2)CC1 (centres undefined) | > 55.7 µM (inactive)
CN(C)Cc1nc2ccccc2c(=O)n1Cc1nc(C(C)(C)C)cs1 | > 55.7 µM (inactive)
COc1cc2c(cc1OC)C(=O)N(Cc1coc(-c3ccccc3)n1)C(=CN1CCOCC1)N2 | > 55.7 µM (inactive)
CC(C(=O)Nc1ccc(F)c(F)c1)N1CCN(S(=O)(=O)c2ccc(C(F)(F)F)cc2)CC1 (centres undefined) | > 18.6 µM (inactive)
CC(=O)c1ccc(S(=O)(=O)N2CCN(C(C(=O)Nc3ccc(C)cc3)c3ccccc3)CC2)cc1 (centres undefined) | > 55.7 µM (inactive)
COc1cc2c(cc1OC)C(=O)N(Cc1nnc(-c3ccc(Cl)cc3)o1)C(=CN1CCOCC1)N2 | > 55.7 µM (inactive)
O=C(Nc1ccc(F)cc1)C(c1ccccc1)N1CCN(C(=O)c2ccccc2)CC1 (centres undefined) | > 55.7 µM (inactive)
O=C(c1ccc(-n2c(=S)[nH]c3ccccc3c2=O)cc1)N1CCN(c2ccc(F)cc2)CC1 | > 55.7 µM (inactive)
O=C(Nc1ccc(F)cc1)C(c1ccccc1)N1CCN(S(=O)(=O)c2ccc3c(c2)OCCO3)CC1 (centres undefined) | > 55.7 µM (inactive)
CCOC(=O)c1ccc(S(=O)(=O)N2CCN(C(C(=O)Nc3ccc(OC)c(Cl)c3)c3ccccc3)CC2)cc1 (centres undefined) | > 55.7 µM (inactive)
CNC(=O)c1nn(-c2ccc(F)cc2)c(=O)c2ccccc12 | > 55.7 µM (inactive)
CCOc1ccccc1NC(=O)C(c1ccccc1)N1CCN(S(=O)(=O)c2ccc(F)c(F)c2F)CC1 (centres undefined) | > 55.7 µM (inactive)
CN1CCN(C(=O)c2ccc(-n3c(=S)[nH]c4ccccc4c3=O)cc2)CC1 | > 55.7 µM (inactive)
Cc1cc2oc(=O)cc(CSc3nc4ccccc4c(=O)[nH]3)c2cc1Cl | > 55.7 µM (inactive)
CC(C(=O)Nc1ccccc1)N1CCN(S(=O)(=O)c2ccccc2)CC1 (centres undefined) | > 55.7 µM (inactive)
CN1CCN(Cc2nc3ccccc3c(=O)n2Cc2nc(-c3ccccc3F)cs2)CC1 | > 55.7 µM (inactive)
O=C(O)c1nn(-c2ccc(F)cc2)c(=O)c2ccccc12 | > 55.7 µM (inactive)
C=C1NN(c2ccc(C(=O)N3CCC(Cc4ccccc4)CC3)cc2)C(=O)c2ccccc21 | inactive
Cc1ccc(C)c(S(=O)(=O)N2CCN(C(C(=O)Nc3ccc(F)cc3)c3ccccc3)CC2)c1 (centres undefined) | > 55.7 µM (inactive)
Cc1ccc(NC(=O)C(c2ccccc2)N2CCN(S(=O)(=O)c3ccccc3)CC2)cc1 (centres undefined) | > 55.7 µM (inactive)
COc1ccc(N2CCN(C(=O)c3ccc(-n4c(=S)[nH]c5ccccc5c4=O)cc3)CC2)cc1 | > 55.7 µM (inactive)

SMILES | IC50
O=C(Nc1ccc(F)cc1)C(c1ccccc1)N1CCN(S(=O)(=O)c2ccc3ccccc3c2)CC1 (centres undefined) | > 55.7 µM (inactive)
COc1cc2c(cc1OC)C(=O)N(Cc1cc(-c3ccccc3OC)no1)C(=CN1CCOCC1)N2 | inactive
Cc1ccc(-n2nc(C(=O)O)c3ccccc3c2=O)cc1C | > 55.7 µM (inactive)
Cc1ccc(-n2nc(C(=O)O)c3ccccc3c2=O)cc1Cl | > 55.7 µM (inactive)
CN(C)Cc1nc2ccccc2c(=O)n1Cc1nc(-c2cccc([N+](=O)[O-])c2)cs1 | > 55.7 µM (inactive)
COc1cccc(-c2csc(Cn3c(CN4CCOCC4)nc4ccccc4c3=O)n2)c1 | > 55.7 µM (inactive)
Cc1ccc(C)c(NC(=O)C(c2ccccc2)N2CCN(S(=O)(=O)c3ccccc3C#N)CC2)c1 (centres undefined) | > 55.7 µM (inactive)
COc1cccc(NC(=O)C(c2ccccc2)N2CCN(S(=O)(=O)c3ccc(C)cc3)CC2)c1 (centres undefined) | > 55.7 µM (inactive)
O=C(OCC1CCCCC1)c1nn(-c2ccccc2)c(=O)c2ccccc12 | > 55.7 µM (inactive)
CCOC(=O)N1CCN(C(=O)c2ccc(-n3c(=S)[nH]c4ccccc4c3=O)cc2)CC1 | > 55.7 µM (inactive)
O=C(Nc1ccc(F)cc1)C(c1ccccc1)N1CCN(S(=O)(=O)c2ccccc2)CC1 (centres undefined) | > 55.7 µM (inactive)
O=C(Nc1ccc(Cl)c(C(F)(F)F)c1)C(c1ccccc1)N1CCN(S(=O)(=O)c2ccccc2)CC1 (centres undefined) | > 55.7 µM (inactive)
CN(Cc1ccccc1N1CCCC1)C(=O)c1nn(-c2ccccc2)c(=O)c2ccccc12 | > 55.7 µM (inactive)
N#Cc1ccc(S(=O)(=O)N2CCN(C(C(=O)Nc3ccc(F)cc3)c3ccccc3)CC2)cc1 (centres undefined) | > 55.7 µM (inactive)
COc1ccc(C)cc1NC(=O)C(c1ccccc1)N1CCN(S(=O)(=O)c2ccc(F)cc2)CC1 (centres undefined) | > 55.7 µM (inactive)
CN1CCN(C=C2Nc3ccccc3C(=O)N2Cc2nc(C34CC5CC(CC(C5)C3)C4)cs2)CC1 | > 55.7 µM (inactive)
O=c1c2ccccc2nc(CN2CCOCC2)n1Cc1nc(-c2ccc[nH]2)cs1 | > 55.7 µM (inactive)
O=C(c1ccc(-n2c(=S)[nH]c3ccccc3c2=O)cc1)N1CCN(C2CCCCC2)CC1 | > 55.7 µM (inactive)
CCC(C(=O)Nc1ccccc1)N1CCN(S(=O)(=O)c2ccc3c(c2)CCC3)CC1 (centres undefined) | > 55.7 µM (inactive)
CN(C)C(=O)c1nn(-c2ccc(F)cc2)c(=O)c2ccccc12 | > 55.7 µM (inactive)
CCOc1ccc(-c2csc(Cn3c(CN4CCN(C)CC4)nc4ccccc4c3=O)n2)cc1 | > 55.7 µM (inactive)
CCOc1ccc2oc(=O)cc(CSc3nc4ccccc4c(=O)[nH]3)c2c1 | > 55.7 µM (inactive)
COC(=O)c1nn(-c2ccc(F)cc2)c(=O)c2ccccc12 | > 55.7 µM (inactive)
O=C(c1ccc(-n2c(=S)[nH]c3ccccc3c2=O)cc1)N1CCN(C(=O)c2ccco2)CC1 | > 55.7 µM (inactive)
NC(=O)c1ccc(S(=O)(=O)N2CCN(C(C(=O)Nc3ccc(F)cc3)c3ccccc3)CC2)cc1 (centres undefined) | > 55.7 µM (inactive)
O=c1cc(CSc2nc3ccccc3c(=O)[nH]2)c2ccc(O)cc2o1 | > 55.7 µM (inactive)
CCOC(=O)Nc1ccc2c(CSc3nc4ccccc4c(=O)[nH]3)cc(=O)oc2c1 | > 55.7 µM (inactive)
